In the kinase profiling compilation of Christmann-Franck et al. (2016):

Tests used:
Experiment in all cases: radiometric filter-binding kinase assay, Kinase HotSpot
Conditions in all cases: compound 0.5 µM; ATP 10 µM
ERBB2 (human) = ERBB2 (human) (UniProt P04626)
STK3 (human) = STK3 (human) (UniProt Q13188)
PRKCB1 (human) = PRKCB1 (human) (UniProt P05771)
CAMK1 (human) = CAMK1 (human) (UniProt Q14012)
STK38 (human) = STK38 (human) (UniProt Q15208)
STK25 (human) = STK25 (human) (UniProt O00506)
PRKD2 (human) = PRKD2 (human) (UniProt Q9BZL6)
PRKD2 (human), sequence (Q9BZL6 whole entry, looked up): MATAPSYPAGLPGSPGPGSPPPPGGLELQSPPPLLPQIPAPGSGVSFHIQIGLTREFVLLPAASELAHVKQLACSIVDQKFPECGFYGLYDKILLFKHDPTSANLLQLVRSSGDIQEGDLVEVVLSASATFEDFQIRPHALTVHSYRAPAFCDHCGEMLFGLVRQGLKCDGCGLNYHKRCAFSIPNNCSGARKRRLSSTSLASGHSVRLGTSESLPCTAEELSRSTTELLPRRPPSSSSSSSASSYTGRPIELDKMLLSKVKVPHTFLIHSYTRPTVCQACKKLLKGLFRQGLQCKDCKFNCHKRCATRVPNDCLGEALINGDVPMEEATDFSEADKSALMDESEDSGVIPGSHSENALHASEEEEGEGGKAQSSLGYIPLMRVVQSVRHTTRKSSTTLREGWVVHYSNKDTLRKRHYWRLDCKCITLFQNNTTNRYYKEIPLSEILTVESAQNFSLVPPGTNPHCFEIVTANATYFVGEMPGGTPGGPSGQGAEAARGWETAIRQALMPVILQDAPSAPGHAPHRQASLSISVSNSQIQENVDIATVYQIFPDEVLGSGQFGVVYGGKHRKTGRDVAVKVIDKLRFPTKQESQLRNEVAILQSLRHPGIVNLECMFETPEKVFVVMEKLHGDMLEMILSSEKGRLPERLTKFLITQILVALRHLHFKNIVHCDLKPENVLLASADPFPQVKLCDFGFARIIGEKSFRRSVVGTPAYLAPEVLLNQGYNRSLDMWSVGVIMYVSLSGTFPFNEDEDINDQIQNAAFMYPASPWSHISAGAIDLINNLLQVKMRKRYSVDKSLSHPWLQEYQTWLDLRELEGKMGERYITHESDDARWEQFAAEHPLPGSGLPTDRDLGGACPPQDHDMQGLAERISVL

NEK1 (human) = NEK1 (human) (UniProt Q96PY6)
PRKCI (human) = PRKCI (human) (UniProt P41743)
DAPK2 (human) = DAPK2 (human) (UniProt Q9UIK4)
DAPK2 (human), sequence (Q9UIK4 whole entry, looked up): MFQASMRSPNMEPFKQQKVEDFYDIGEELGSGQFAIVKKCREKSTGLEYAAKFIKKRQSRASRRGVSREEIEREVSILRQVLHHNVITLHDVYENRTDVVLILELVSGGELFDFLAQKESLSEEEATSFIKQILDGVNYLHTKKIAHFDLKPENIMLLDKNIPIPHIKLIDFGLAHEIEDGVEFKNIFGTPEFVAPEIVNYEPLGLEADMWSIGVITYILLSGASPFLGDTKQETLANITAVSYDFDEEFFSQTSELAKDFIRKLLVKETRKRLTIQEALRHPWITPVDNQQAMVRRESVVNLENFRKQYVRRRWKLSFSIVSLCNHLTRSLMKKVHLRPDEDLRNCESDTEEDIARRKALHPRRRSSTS

RPS6KA3 KD1 KD2 (human) = RPS6KA3 KD1 KD2 (human) (UniProt P51812)
MAPK10 (human) = MAPK10 (human) (UniProt P53779)
CHEK1 (human) = CHEK1 (human) (UniProt O14757)
RET (human) = RET (human) (UniProt P07949)
ULK3 (human) = ULK3 (human) (UniProt Q6PHR2)
MKNK2 (human) = MKNK2 (human) (UniProt Q9HBH9)
EPHA3 (human) = EPHA3 (human) (UniProt P29320)
YES1 (human) = YES1 (human) (UniProt P07947)
TYRO3 (human) = TYRO3 (human) (UniProt Q06418)
TYRO3 (human), sequence (Q06418 whole entry, looked up): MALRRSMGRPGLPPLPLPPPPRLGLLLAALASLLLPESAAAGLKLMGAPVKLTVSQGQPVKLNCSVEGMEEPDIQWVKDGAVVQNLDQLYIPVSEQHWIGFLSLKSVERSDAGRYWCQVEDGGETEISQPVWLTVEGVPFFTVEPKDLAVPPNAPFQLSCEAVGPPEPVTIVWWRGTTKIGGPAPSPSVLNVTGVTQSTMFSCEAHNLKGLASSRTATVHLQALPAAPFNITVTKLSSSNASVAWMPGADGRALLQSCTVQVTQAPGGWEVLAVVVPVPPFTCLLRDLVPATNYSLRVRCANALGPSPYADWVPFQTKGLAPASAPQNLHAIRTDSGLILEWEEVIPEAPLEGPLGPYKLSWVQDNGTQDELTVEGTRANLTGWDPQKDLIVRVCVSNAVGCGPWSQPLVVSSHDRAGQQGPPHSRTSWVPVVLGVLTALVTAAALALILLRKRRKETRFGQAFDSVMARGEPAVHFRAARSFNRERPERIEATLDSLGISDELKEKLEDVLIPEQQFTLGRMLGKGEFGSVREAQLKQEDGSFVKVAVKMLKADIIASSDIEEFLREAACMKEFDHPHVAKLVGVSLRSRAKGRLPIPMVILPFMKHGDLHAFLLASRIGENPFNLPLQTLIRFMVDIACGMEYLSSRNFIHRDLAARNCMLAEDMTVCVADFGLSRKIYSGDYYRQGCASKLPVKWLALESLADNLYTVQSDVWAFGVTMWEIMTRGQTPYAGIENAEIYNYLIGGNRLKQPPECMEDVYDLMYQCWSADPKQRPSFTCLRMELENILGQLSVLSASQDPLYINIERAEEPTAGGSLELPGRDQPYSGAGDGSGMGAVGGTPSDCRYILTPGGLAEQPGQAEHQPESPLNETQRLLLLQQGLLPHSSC

MAPKAPK5 (human) = MAPKAPK5 (human) (UniProt Q8IW41)
MYLK2 (human) = MYLK2 (human) (UniProt Q9H1R3)
ACVR1B (human) = ACVR1B (human) (UniProt P36896)
MYLK (human) = MYLK (human) (UniProt Q15746)
MET (human) = MET (human) (UniProt P08581)
IKBKE (human) = IKBKE (human) (UniProt Q14164)
RPS6KA6 KD1 KD2 (human) = RPS6KA6 KD1 KD2 (human) (UniProt Q9UK32)
RPS6KB1 (human) = RPS6KB1 (human) (UniProt P23443)
PHKG2 (human) = PHKG2 (human) (UniProt P15735)
MINK1 (human) = MINK1 (human) (UniProt Q8N4C8)
NEK7 (human) = NEK7 (human) (UniProt Q8TDX7)
GSK3B (human) = GSK3B (human) (UniProt P49841)
MAPK11 (human) = MAPK11 (human) (UniProt Q15759)
AURKB (human) = AURKB (human) (UniProt Q96GD4)
AURKB (human), sequence (Q96GD4 whole entry, looked up): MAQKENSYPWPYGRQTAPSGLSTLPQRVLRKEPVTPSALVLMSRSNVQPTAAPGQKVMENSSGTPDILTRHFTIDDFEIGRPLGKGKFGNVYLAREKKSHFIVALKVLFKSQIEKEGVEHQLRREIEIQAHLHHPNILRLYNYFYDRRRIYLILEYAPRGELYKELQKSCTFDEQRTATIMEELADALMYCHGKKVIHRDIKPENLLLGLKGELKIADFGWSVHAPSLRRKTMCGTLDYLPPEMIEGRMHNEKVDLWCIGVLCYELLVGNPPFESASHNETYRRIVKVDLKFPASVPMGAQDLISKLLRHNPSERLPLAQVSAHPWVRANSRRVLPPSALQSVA

EPHB3 (human) = EPHB3 (human) (UniProt P54753)
MLTK (human) = MLTK (human) (UniProt Q9NYL2)
IRAK1 (human) = IRAK1 (human) (UniProt P51617)
IRAK1 (human), sequence (P51617 whole entry, looked up): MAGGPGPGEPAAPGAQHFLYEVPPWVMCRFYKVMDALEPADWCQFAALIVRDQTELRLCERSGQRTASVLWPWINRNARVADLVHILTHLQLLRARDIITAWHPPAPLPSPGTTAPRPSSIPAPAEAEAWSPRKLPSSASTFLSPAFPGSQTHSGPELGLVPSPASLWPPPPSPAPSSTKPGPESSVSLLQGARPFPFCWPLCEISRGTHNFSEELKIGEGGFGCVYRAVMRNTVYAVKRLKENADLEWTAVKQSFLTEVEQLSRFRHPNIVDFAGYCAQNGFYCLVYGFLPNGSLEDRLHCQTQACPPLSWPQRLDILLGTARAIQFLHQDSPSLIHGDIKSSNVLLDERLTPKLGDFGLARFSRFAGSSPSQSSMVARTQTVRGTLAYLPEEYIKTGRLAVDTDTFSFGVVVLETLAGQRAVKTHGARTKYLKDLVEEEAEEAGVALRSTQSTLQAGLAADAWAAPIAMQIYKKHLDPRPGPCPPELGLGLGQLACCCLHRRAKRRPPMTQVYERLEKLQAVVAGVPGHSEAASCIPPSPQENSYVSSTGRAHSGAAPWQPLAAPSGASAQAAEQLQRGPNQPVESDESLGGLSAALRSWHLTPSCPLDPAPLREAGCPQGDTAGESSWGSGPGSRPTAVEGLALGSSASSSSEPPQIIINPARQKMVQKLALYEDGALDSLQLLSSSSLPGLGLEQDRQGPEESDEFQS

MST4 (human) = MST4 (human) (UniProt Q9P289)
CLK2 (human) = CLK2 (human) (UniProt P49760)
PLK1 (human) = PLK1 (human) (UniProt P53350)
PLK1 (human), sequence (P53350 whole entry, looked up): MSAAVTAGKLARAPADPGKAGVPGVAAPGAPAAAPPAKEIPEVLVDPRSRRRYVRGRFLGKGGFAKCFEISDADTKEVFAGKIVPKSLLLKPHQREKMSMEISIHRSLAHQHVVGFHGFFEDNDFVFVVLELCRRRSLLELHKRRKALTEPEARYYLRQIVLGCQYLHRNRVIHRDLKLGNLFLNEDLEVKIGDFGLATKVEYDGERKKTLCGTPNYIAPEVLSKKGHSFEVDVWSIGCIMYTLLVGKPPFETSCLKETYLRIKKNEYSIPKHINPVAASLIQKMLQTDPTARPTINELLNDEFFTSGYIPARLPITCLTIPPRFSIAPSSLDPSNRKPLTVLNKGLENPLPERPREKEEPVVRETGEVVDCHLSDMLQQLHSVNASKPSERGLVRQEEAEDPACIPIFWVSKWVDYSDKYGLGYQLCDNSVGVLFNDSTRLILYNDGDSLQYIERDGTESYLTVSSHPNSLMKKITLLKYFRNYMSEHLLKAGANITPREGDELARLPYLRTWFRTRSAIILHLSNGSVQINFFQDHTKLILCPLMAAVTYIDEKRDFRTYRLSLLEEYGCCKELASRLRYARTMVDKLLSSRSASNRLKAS

PNCK (human) = PNCK (human) (UniProt Q6P2M8)
PNCK (human), sequence (Q6P2M8 whole entry, looked up): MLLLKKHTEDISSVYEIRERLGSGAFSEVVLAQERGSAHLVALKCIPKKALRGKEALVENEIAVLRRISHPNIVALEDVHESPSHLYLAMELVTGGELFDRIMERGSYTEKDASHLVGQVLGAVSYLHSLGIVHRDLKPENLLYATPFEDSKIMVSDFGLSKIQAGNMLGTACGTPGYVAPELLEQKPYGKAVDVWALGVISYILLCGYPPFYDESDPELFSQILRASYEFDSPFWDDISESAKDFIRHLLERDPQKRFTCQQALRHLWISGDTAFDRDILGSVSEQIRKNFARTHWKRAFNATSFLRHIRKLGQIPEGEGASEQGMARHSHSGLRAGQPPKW

PAK4 (human) = PAK4 (human) (UniProt O96013)
FGFR1 (human) = FGFR1 (human) (UniProt P11362)
FGFR1 (human), sequence (P11362 whole entry, looked up): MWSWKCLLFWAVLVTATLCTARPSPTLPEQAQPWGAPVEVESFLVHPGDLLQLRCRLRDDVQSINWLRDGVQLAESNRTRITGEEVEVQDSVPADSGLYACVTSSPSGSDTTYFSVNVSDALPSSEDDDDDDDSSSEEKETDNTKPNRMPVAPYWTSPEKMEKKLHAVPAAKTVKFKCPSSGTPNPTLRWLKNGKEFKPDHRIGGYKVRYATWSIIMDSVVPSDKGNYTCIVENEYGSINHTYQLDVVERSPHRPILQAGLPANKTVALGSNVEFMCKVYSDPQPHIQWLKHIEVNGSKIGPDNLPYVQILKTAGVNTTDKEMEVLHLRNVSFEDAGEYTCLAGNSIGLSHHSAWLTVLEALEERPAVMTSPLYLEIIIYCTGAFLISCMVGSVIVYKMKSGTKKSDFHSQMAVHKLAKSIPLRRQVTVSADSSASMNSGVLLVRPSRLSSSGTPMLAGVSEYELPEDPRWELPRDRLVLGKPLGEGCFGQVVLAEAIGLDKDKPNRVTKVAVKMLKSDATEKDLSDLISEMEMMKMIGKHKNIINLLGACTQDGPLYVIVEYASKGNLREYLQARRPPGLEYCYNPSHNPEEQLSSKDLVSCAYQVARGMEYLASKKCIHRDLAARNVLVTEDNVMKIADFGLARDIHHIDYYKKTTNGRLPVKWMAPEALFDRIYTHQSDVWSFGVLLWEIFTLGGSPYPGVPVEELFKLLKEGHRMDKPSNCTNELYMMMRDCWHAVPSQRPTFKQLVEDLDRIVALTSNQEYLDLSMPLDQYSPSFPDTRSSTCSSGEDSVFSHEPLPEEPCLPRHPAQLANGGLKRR

`N#CC(C#N)=C(N)/C(C#N)=C/c1ccc(O)cc1` showed a residual activity (ERBB2 (human)) of 90.1%, a residual activity (STK3 (human)) of 95.2% and a residual activity (PRKCB1 (human)) of 114%. It also gave a residual activity (CAMK1 (human)) of 97.2%, a residual activity (STK38 (human)) of 96.9% and a residual activity (STK25 (human)) of 90.4%. For the same molecule, the residual activity (PRKD2 (human)) was 100%, the residual activity (NEK1 (human)) was 95.7% and the residual activity (PRKCI (human)) was 97.4%. The residual activity (DAPK2 (human)) was 95.7%, the residual activity (RPS6KA3 KD1 KD2 (human)) was 94.6% and the residual activity (MAPK10 (human)) was 98.8%. The residual activity (CHEK1 (human)) was 98.3%, the residual activity (RET (human)) was 110% and the residual activity (ULK3 (human)) was 67.8%. For the same molecule, the residual activity (MKNK2 (human)) was 79.1%, the residual activity (EPHA3 (human)) was 98.3% and the residual activity (YES1 (human)) was 100%. For the same molecule, the residual activity (TYRO3 (human)) was 99.3%, the residual activity (MAPKAPK5 (human)) was 94.2% and the residual activity (MYLK2 (human)) was 99.4%. It also gave a residual activity (ACVR1B (human)) of 101%, a residual activity (MYLK (human)) of 101% and a residual activity (MET (human)) of 117%. It also gave a residual activity (IKBKE (human)) of 91%, a residual activity (RPS6KA6 KD1 KD2 (human)) of 104% and a residual activity (RPS6KB1 (human)) of 89.5%. It also gave a residual activity (PHKG2 (human)) of 96.7%, a residual activity (MINK1 (human)) of 97.7% and a residual activity (NEK7 (human)) of 98.9%. It also gave a residual activity (GSK3B (human)) of 89.5%, a residual activity (MAPK11 (human)) of 100% and a residual activity (AURKB (human)) of 91%. For the same molecule, the residual activity (EPHB3 (human)) was 99.5%, the residual activity (MLTK (human)) was 95.7% and the residual activity (IRAK1 (human)) was 123%. The residual activity (MST4 (human)) was 101%, the residual activity (CLK2 (human)) was 100% and the residual activity (PLK1 (human)) was 60.8%. The residual activity (PNCK (human)) was 97.3%, the residual activity (PAK4 (human)) was 85.6% and the residual activity (FGFR1 (human)) was 95.3%.

Work on `COc1cc2ncnc(Nc3cccc(Cl)c3)c2cc1OC` yielded a residual activity (ERBB2 (human)) of 22.5%, a residual activity (STK3 (human)) of 124% and a residual activity (PRKCB1 (human)) of 103%. It also gave a residual activity (CAMK1 (human)) of 99.2%, a residual activity (STK38 (human)) of 104% and a residual activity (STK25 (human)) of 101%. It also gave a residual activity (PRKD2 (human)) of 92.3%, a residual activity (NEK1 (human)) of 93.1% and a residual activity (PRKCI (human)) of 97.5%. It also gave a residual activity (DAPK2 (human)) of 93.3%, a residual activity (RPS6KA3 KD1 KD2 (human)) of 87.8% and a residual activity (MAPK10 (human)) of 89%. For the same molecule, the residual activity (CHEK1 (human)) was 93.7%, the residual activity (RET (human)) was 35.3% and the residual activity (ULK3 (human)) was 77.3%. The residual activity (MKNK2 (human)) was 39.5%, the residual activity (EPHA3 (human)) was 97.9% and the residual activity (YES1 (human)) was 59.9%. The residual activity (TYRO3 (human)) was 96.7%, the residual activity (MAPKAPK5 (human)) was 89.5% and the residual activity (MYLK2 (human)) was 90.1%. For the same molecule, the residual activity (ACVR1B (human)) was 98%, the residual activity (MYLK (human)) was 89% and the residual activity (MET (human)) was 75.5%. The residual activity (IKBKE (human)) was 101%, the residual activity (RPS6KA6 KD1 KD2 (human)) was 90.5% and the residual activity (RPS6KB1 (human)) was 88.5%. The residual activity (PHKG2 (human)) was 92.6%, the residual activity (MINK1 (human)) was 83.1% and the residual activity (NEK7 (human)) was 99%. It also gave a residual activity (GSK3B (human)) of 98.7%, a residual activity (MAPK11 (human)) of 97.5% and a residual activity (AURKB (human)) of 74.4%. For the same molecule, the residual activity (EPHB3 (human)) was 99.1%, the residual activity (MLTK (human)) was 99.3% and the residual activity (IRAK1 (human)) was 86.6%. For the same molecule, the residual activity (MST4 (human)) was 108%, the residual activity (CLK2 (human)) was 89.6% and the residual activity (PLK1 (human)) was 105%. The residual activity (PNCK (human)) was 89.6%, the residual activity (PAK4 (human)) was 76.5% and the residual activity (FGFR1 (human)) was 84.9%.
